From patent US4278663A, “Antibiotic X-14868A, B, C and D” (Hoffmann-La Roche Inc., priority 1980, dated 1981)
Converted amounts (≈) assume the structure as drawn. Where two headings read alike, the source gives them in different places.

Experiments:
[1] = tested on: Penicillin digitatum 0184 ATCC 26821; experiment: Antimicrobial activity, Minimum Inhibitory Concentration (Table 4); format: cell-based; conditions: Molds
[2] = tested on: Staphylococcus aureus 82 ATCC 6538p; experiment: as above; format: cell-based; conditions: G (+) cocci
[3] = tested on: in vitro rumen fermentations; experiment: Volatile fatty acid ratio in in vitro rumen fermentations (Table 6); parameters: species or system steer; conditions: for VFA Molor Ratio C3 /(C2 +nC4): four hours, 38° C.; for % Positive Control: relative to monensin 50 ppm
Experimental: Rumen fluid is obtained from a steer with a fistulated rumen. The steer is maintained on the following ration:
The rumen fluid is immediately strained through a #30 mesh sieve. For each fermentation, 75 ml of the resulting fluid is added to a 250 ml flask containing the following:
1 g of 80%:20% finely ground grain: hay ration;
60 micromoles of each of the 10 essential amino acids (arginine, histidine, leucine, methionine, threonine, valine, lysine, isoleucine, phenylalanine,tryptophan);
Each flask is incubated at 38° C. in a shaking water bath equipped with a gassing hood. Carbon dioxide is continuously passed through the hood. […] The resulting fluid is permitted to sit at room temperature for 30 minutes. The fluid is filtered through a […] Millipore filter and refrigerated until gas-liquid chromatographic analysis for volatile fatty acids.

[4] = tested on: Sarcina lutea PCI ATCC 9341; experiment: Antimicrobial activity, Minimum Inhibitory Concentration (Table 4); format: cell-based; conditions: G (+) cocci
[5] = tested on: Mycobacterium phlei 78 ATCC 355; experiment: as above; format: cell-based; conditions: G (+) filaments
[6] = tested on: Saccharomyces cerevisiae 90 NRRL 4226; experiment: as above; format: cell-based; conditions: Yeast
[7] = tested on: Bacillus megaterium 164 ATCC 8011; experiment: as above; format: cell-based; conditions: G (+) rods
Bacillus sp.E ATCC 27859 = experiment: as above; format: cell-based; conditions: G (+) rods
[8] = tested on: Candida albicans 155 NRRL 477; experiment: as above; format: cell-based; conditions: Yeast
[9] = tested on: Bacillus subtilis NRRL 558; experiment: as above; format: cell-based; conditions: G (+) rods
[10] = tested on: Paecilomyces varioti M16 ATCC 26820; experiment: as above; format: cell-based; conditions: Molds
ruminants = experiment: Growth promotion / efficiency of feed utilization in ruminants; format: in vivo; conditions: result in words
[11] = tested on: Streptomyces cellulosae 097 ATCC 3313; experiment: Antimicrobial activity, Minimum Inhibitory Concentration (Table 4); format: cell-based; conditions: G (+) filaments
[12] = tested on: Streptococcus faecium ATCC 8043; experiment: as above; format: cell-based; conditions: G (+) cocci
Treponema hyodysenteriae = experiment: Minimum Inhibitory Concentration against Treponema hyodysenteriae (Table 7); format: cell-based; conditions: for MIC: Brachyspira hyodysenteriae
From the text: The compound was examined for activity against Treponema hyodysenteriae, the etiologic agent of swine dysentery. The results which represent a comparative test following well-known test methods versus a known agent in the treatment and prevention of swine dysentery are set forth in the table below.

**Q.** CO[C@@H]1[C@@H](OC)[C@H](C)[C@@](O)(CC(=O)O)O[C@H]1[C@H](C)[C@H]1O[C@@]2(CC[C@@](C)([C@H]3CC[C@@](C)([C@@H]4O[C@@H]([C@H]5O[C@](C)(O)[C@H](C)C[C@@H]5C)C[C@@H]4O[C@@H]4C[C@H](OC)[C@@H](OC)[C@H](C)O4)O3)O2)C[C@H](O)[C@H]1C.N [Antibiotic X-14868A] was tested. Which “Minimum Inhibitory Concentration” value [1] did it give?
**A.** Its value is 1000 µg/mL.

**Q.** What about the “Minimum Inhibitory Concentration” value [2] of the same compound?
**A.** Its value is 6.25 µg/mL.

**Q.** And the “VFA Molor Ratio C3 /(C2 +nC4)” value ([3]; 5 ppm)?
**A.** Its value is 0.323.

**Q.** What about the “% Positive Control” value ([3]; 5 ppm) of the same compound?
**A.** The value was 82.5%.

**Q.** What about the “VFA Molor Ratio C3 /(C2 +nC4)” value ([3]; 50 ppm) of the same compound?
**A.** The value was 0.358.

**Q.** What about the “% Positive Control” value ([3]; 50 ppm) of the same compound?
**A.** Its value is 91.2%.

**Q.** What about the “Minimum Inhibitory Concentration” value [4] of the same compound?
**A.** The value was 12.5 µg/mL.

**Q.** And the “Minimum Inhibitory Concentration” value [5]?
**A.** Its value is 12.5 µg/mL.

**Q.** What about the “Minimum Inhibitory Concentration” value [6] of the same compound?
**A.** Its value is 1000 µg/mL.

**Q.** And the “Minimum Inhibitory Concentration” value [7]?
**A.** Its value is 12.5 µg/mL.

**Q.** And the “Minimum Inhibitory Concentration” value (Bacillus sp.E ATCC 27859)?
**A.** Its value is 0.39 µg/mL.

**Q.** What about the “Minimum Inhibitory Concentration” value [8] of the same compound?
**A.** The value was 250 µg/mL.

**Q.** And the “Minimum Inhibitory Concentration” value [9]?
**A.** Its value is 12.5 µg/mL.

**Q.** What about the “Minimum Inhibitory Concentration” value [10] of the same compound?
**A.** Its value is 250 µg/mL.

**Q.** And the “efficiency of feed utilization in ruminant animals” value (ruminants; oral)?
**A.** The value was “increases the efficiency of feed utilization in ruminant animals”.

**Q.** And the “activity as a growth promotant in ruminants” value (ruminants)?
**A.** Its value is “exhibit activity as a growth promotant in ruminants”.

**Q.** What about the “Minimum Inhibitory Concentration” value [11] of the same compound?
**A.** Its value is 25 µg/mL.

**Q.** What about the “Minimum Inhibitory Concentration” value [12] of the same compound?
**A.** The value was 0.313 µg/mL.

**Q.** What about the “Minimum Inhibitory Concentration, Mean” value (Treponema hyodysenteriae; mean of four strains) of the same compound?
**A.** The value was 0.05 meg/ml.

**Q.** What about the “Minimum Inhibitory Concentration” value (Treponema hyodysenteriae; strain B 169) of the same compound?
**A.** Its value is 0.05 meg/ml.

**Q.** And the “Minimum Inhibitory Concentration” value (Treponema hyodysenteriae; strain H 140)?
**A.** Its value is 0.05 meg/ml.

**Q.** And the “Minimum Inhibitory Concentration” value (Treponema hyodysenteriae; strain H-78)?
**A.** Its value is 0.05 meg/ml.

**Q.** What about the “Minimum Inhibitory Concentration” value (Treponema hyodysenteriae; strain SQ 2) of the same compound?
**A.** The value was 0.05 meg/ml.

**Q.** How did the MIC (Treponema hyodysenteriae; mean of four strains, read-out: Minimum Inhibitory Concentration, Mean) turn out when CC(C)c1ncc([N+](=O)[O-])n1C [Ipronidazole, reference compound] was run?
**A.** Its MIC is 1.1 µg/mL (≈ 6.5 µM).

**Q.** What about the MIC (Treponema hyodysenteriae; strain B 169, read-out: Minimum Inhibitory Concentration) of the same compound?
**A.** The MIC was 0.63 µg/mL (≈ 3.72 µM).

**Q.** What about the MIC (Treponema hyodysenteriae; strain H 140, read-out: Minimum Inhibitory Concentration) of the same compound?
**A.** Its MIC is 0.63 µg/mL (≈ 3.72 µM).

**Q.** And the MIC (Treponema hyodysenteriae; strain H-78, read-out: Minimum Inhibitory Concentration)?
**A.** The MIC was 0.63 µg/mL (≈ 3.72 µM).

**Q.** What about the MIC (Treponema hyodysenteriae; strain SQ 2, read-out: Minimum Inhibitory Concentration) of the same compound?
**A.** Its MIC is 2.5 µg/mL (≈ 14.8 µM).

**Q.** Which “VFA Molor Ratio C3 /(C2 +nC4)” value ([3]; 50 ppm) does the source give for CC[C@@]1([C@@H]2O[C@@H]([C@H]3O[C@@](O)(CO)[C@H](C)C[C@@H]3C)C[C@@H]2C)CC[C@H]([C@]2(C)CC[C@]3(C[C@H](O)[C@@H](C)[C@@H]([C@@H](C)[C@@H](OC)[C@H](C)C(=O)O)O3)O2)O1 [Monensin, reference compound] here?
**A.** The value was 0.392.

**Q.** What about the “% Positive Control” value ([3]; 50 ppm) of the same compound?
**A.** The value was 100.0%.
